This note sets out measurements from patent publication US20170209514A1, “Method For Promoting Bone Length Growth” (Novatec Co., Ltd., priority 2013, published 2017).

Holding throughout (assay type): in vivo, Sprague-Dawley rats
One data set relates to growth plate. As to the kind of experiment: Changes in cartilaginous tissues within the growth plate (H&E staining). The settings on record: rats, after 10-day administration, FIGS. 5A-7. How it is done:
(§1) 3 weeks-old, male Sprague-Dawley rats were obtained and stabilized for 3 days. The feeding conditions included the temperature of 24±2° C., the light-dark cycle of 12 hours, and common solid feed without the inclusion of antibiotics. While the Control group was treated with saline solution, the bamboo (Bambusae caulis in Taeniam) extract, which was prepared in the powder form as described in the above example 1 and added with water, was orally administered once daily. The Positive Control group was treated subcutaneously with the injection of Eutropin (LG Life Sciences, South Korea) at 20 μg/kg once daily.
(§2) The administered substances and dosages in each group are as follows: • Control Group: normal saline solution 1 ml • Positive Control Group: growth hormone 20 μg/kg • Bamboo (Bambusae caulis in Taeniam)-treated Group: 200 mg/kg
(§3) After 10 days of feeding and administration of the above-mentioned substances, the rats were sacrificed with autopsy performed to find the following results.
In order to measure the length of the growth plate zone, the cartilaginous tissues were fixated after autopsy, followed by H&E staining and microscope examination. The length of the growth plate zone was measured five(5) times for each sample. The resulting mean values as obtained were used as a representative value for evaluating their significance.

Data set [1] can be described thus: Change in body weight of experimental animals. The settings on record: rats, observation of 10 days, FIG. 1 (bamboo extract 200 mg/kg oral; GH 20 μg/kg s.c.). How it is done: as §1
Regarding the administration method of the bamboo (Bambusae caulis in Taeniam) extract according to the present invention, rats in all the groups except for the Positive Control group were administered into their oral cavities, while all the rats were administered once daily.
The administered substances and dosages in each group are as follows: • Control Group: normal saline solution 1 ml • Positive Control Group: growth hormone 20 μg/kg • Bamboo (Bambusae caulis in Taeniam)-treated Group: 200 mg/kg […]
Rats of each group in Experiment <1-1> were tested for their body weight at pre- and post-feeding of 10 days. […] The measured values were statistically analyzed for mean value and standard deviation.

The test system of the next data set is osteocalcin. As to the kind of experiment: Osteoblast-activating factor osteocalcin in the serum (ELISA). Particulars: rats, after 10-day administration, in comparison with the Control group, FIG. 10. Here is the method: as §1, §2, §3
After the completion of the administration, blood was collected from the hearts of the experimental rats and coagulated. Serum was then separated so as to obtain samples. Subsequently, the total level of osteocalcin in the serum was measured by using Rat Ostecalcin/Bone Gla Protein. OT/BGP ELISA Kit (Cusabio, product no.: CSB-E05129r).
In general terms: In an ELISA, binding on a coated surface is turned into a signal by an enzyme label.

For a further data set, the system named is tibia. As to the kind of experiment: Measurement of changes in tibia length by X-ray. Particulars: rats, after 10-day administration, vs Control group, FIGS. 3A-3C & 4. How it is done: as §1, §2, §3
After 10-day administration as described in Experiment <1-1>, both right and left tibias of the rats in the experimental group (i.e. Bamboo (Bambusae caulis in Taeniam) extract-treated group) and the control groups were collected, followed by the removal of the muscles, fats and ligaments attached to the bone tissues. […] Tibia length was measured by X-ray radiographs on the tibias.

As to “GH: Growth hormone positive control, Eutropin (LG Life Sciences, South Korea), injected subcutaneously at 20 μg/kg once daily”, in the data set on growth plate, the “Length of the hypertrophic zone within the growth plate” value was “increased greater than that of the Control group” and the “Length of the proliferative zone within the growth plate” value is on record as “increased greater than that of the Control group”. Further, in data set [1], the Weight change result was “no significant difference in weight change”. The “Level of osteocalcin in the serum” value in the data set on osteocalcin is on record as “significantly increased”. Further, the Total tibia length entry with tibia is reported as “increased greater than that of the Control group”.
